Measurements: the supplement of paper PMC10307832

Experiments:
Assay in all cases: relative viability (nuclei count vs DMSO), 5 days (fraction); higher = more cells survive
RAF265 + Pemetrexed = compound: Cn1c(Nc2ccc(C(F)(F)F)cc2)nc2cc(Oc3ccnc(-c4ncc(C(F)(F)F)[nH]4)c3)ccc21 [RAF265] + Nc1nc2[nH]cc(CCc3ccc(C(=O)N[C@@H](CCC(=O)O)C(=O)O)cc3)c2c(=O)[nH]1 [Pemetrexed] (partner 0.2 µM)
In short: (§1)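 Each reported value is a median over duplicate plates. It expresses relative viability: treated-well nuclei count divided by vehicle-well nuclei count. Lung cancer cell lines in 1536-well plates were dosed by pin tool a day after seeding, alone with one drug or with a fixed anchor-drug dose plus five library-drug doses (not always all listed) in √10 steps, and nuclei were counted after 5 days.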

IPA-3 + Navitoclax = compound: C1=CC=C2C(=C1)C=CC(=C2SSC3=C(C=CC4=CC=CC=C43)O)O [IPA-3] + CC1(C)CCC(c2ccc(Cl)cc2)=C(CN2CCN(c3ccc(C(=O)NS(=O)(=O)c4ccc(N[C@H](CCN5CCOCC5)CSc5ccccc5)c(S(=O)(=O)C(F)(F)F)c4)cc3)CC2)C1 [Navitoclax] (partner 0.5 µM)
In short: as §1

Doramapimod + Navitoclax = compound: Cc1ccc(-n2nc(C(C)(C)C)cc2NC(=O)Nc2ccc(OCCN3CCOCC3)c3ccccc23)cc1 [Doramapimod] + CC1(C)CCC(c2ccc(Cl)cc2)=C(CN2CCN(c3ccc(C(=O)NS(=O)(=O)c4ccc(N[C@H](CCN5CCOCC5)CSc5ccccc5)c(S(=O)(=O)C(F)(F)F)c4)cc3)CC2)C1 [Navitoclax] (partner 0.5 µM)
In short: as §1

[1] = compound: Cc1ccc(-n2nc(C(C)(C)C)cc2NC(=O)Nc2ccc(OCCN3CCOCC3)c3ccccc23)cc1 [Doramapimod] + CC(=O)c1c(C)c2cnc(Nc3ccc(N4CCNCC4)cn3)nc2n(C2CCCC2)c1=O [Palbociclib] (partner 0.5 µM)
In short: as §1

Cell Line	relative viability (RAF265 + Pemetrexed; first compound 0.01 µM)	relative viability (RAF265 + Pemetrexed; first compound 0.03162 µM)	relative viability (RAF265 + Pemetrexed; first compound 0.1 µM)	relative viability (RAF265 + Pemetrexed; first compound 0.3162 µM)	relative viability (RAF265 + Pemetrexed; first compound 1 µM)	relative viability (IPA-3 + Navitoclax; first compound 0.2 µM)	relative viability (IPA-3 + Navitoclax; first compound 2 µM)	relative viability (IPA-3 + Navitoclax; first compound 6.325 µM)	relative viability (IPA-3 + Navitoclax; first compound 20 µM)	relative viability (Doramapimod + Navitoclax; first compound 0.02 µM)	relative viability (Doramapimod + Navitoclax; first compound 0.06325 µM)	relative viability (Doramapimod + Navitoclax; first compound 0.2 µM)	relative viability (Doramapimod + Navitoclax; first compound 0.6325 µM)	relative viability (Doramapimod + Navitoclax; first compound 2 µM)	relative viability ([1]; first compound 0.02 µM)	relative viability ([1]; first compound 0.06325 µM)	relative viability ([1]; first compound 0.2 µM)	relative viability ([1]; first compound 0.6325 µM)	relative viability ([1]; first compound 2 µM)	relative viability (IPA-3 + Navitoclax; first compound 0.6325 µM)
SK-LU-1	0.893	0.838	0.711	0.544	0.435	1.39	0.786	0.878	0.971	0.544	1	0.821	1.01	0.7	0.4	0.4	0.396	0.401	0.337	
LOU-NH91	0.365	0.336	0.427	0.419	0.441	0.705	0.744	0.67	0.868	0.683	0.588	0.627	0.63	0.452	0.531	0.564	0.535	0.528	0.509	0.67
LXF-289	0.95	0.841	0.917	0.776	0.764	0.992	1.01	0.957	1.04	0.954	1	0.939	0.903	0.942	0.6	0.586	0.615	0.567	0.63	0.911
NCI-H1299						1.08	1.03	1.01	1.03	1.1	1.13	1.12	1.05	1.09						1.08
HARA	0.269	0.275	0.239	0.218	0.259	1.18	1.12	1.01	1.2	1.1	1.13	1.12	1.11	1.07	0.232	0.275	0.262	0.297	0.264	1.09
LU99A	0.199	0.186	0.161	0.177	0.241	0.866	0.819	0.781	0.889	0.662	0.645	0.818	0.977	0.798	0.38	0.365	0.379	0.426	0.313	0.86
201T	0.352	0.316	0.344	0.311	0.313	1.21	1.21	1.22	1.18	1.27	1.24	1.2	1.29	1.28	0.363	0.351	0.321	0.368	0.336	1.19
HCC-827	0.281	0.24	0.214		0.278	1.01	1	0.99	0.993	1.01	0.959	0.984	1	0.829	0.456	0.479	0.493	0.475	0.329	1.01
NCI-H1666	0.787	0.782	0.904	0.888	0.754	1.07	1.08	0.962	0.863	0.991	0.838	1.04	0.918	0.789	0.734	0.641	0.69	0.704	0.613	0.981
NCI-H1915	0.463	0.419	0.486	0.406	0.361	0.794	0.782	0.782	0.738	0.843	0.838	0.85	0.801	0.761	0.507	0.547	0.469	0.525	0.487	0.817
NCI-H2009	1.01	0.955	1.02	0.965	0.885	1.29	1.19	1.16	1.15	1.25	1.18	1.2	1.29	1.19	0.26	0.262	0.3	0.314	0.247	1.17
ChaGo-K-1	0.262	0.273	0.248	0.262	0.325	1.07	0.836	1.06	1.17	1.07	1.25	1.24		1.01	0.928	0.906	0.918	0.942	0.823	1
COR-L 105	1.27	0.941	1.31	0.714	0.685	0.866	0.925	0.644	0.782	0.685	0.713	0.811	0.81	0.889	0.398	0.421	0.404	0.449	0.351	1.07
NCI-H2170	0.245	0.258	0.263	0.261	0.251	0.702	0.552	0.507	0.504	0.512	0.495	0.539	0.601	0.478	0.381	0.421	0.413	0.387	0.377	0.614
A549						1.27	1.39	1.28	1.18	1.18	1.22	1.39	1.34	1.1						1.21
SW 1573	0.872	0.833	0.753	0.6	0.634	0.99	1.21	1.09	1.13	1.11	0.83	1.05	0.78	0.789	0.449	0.358	0.298	0.354	0.313	0.67
NCI-H1975	0.307	0.256	0.234	0.203	0.19	1.22	1.06	1.17	1.17	1.2	1.19	0.991	1.16	0.981	0.583	0.576	0.488	0.596	0.512	0.932
